Patent US20090197279A1, “MICROTUBULE SYNTHESIS AS A BIOMARKER” (KINEMED, INC., priority 2005, published 2009)

Tested on: primary rat neurons
Assay: Microtubule dynamics in glutamate-stimulated cultures of primary rat neurons
Format: cell-based
Conditions: parallel experiments, data not shown
Description: Rat brain hippocampus neuronal cells were obtained from Cambrex Bio Science (Walkersville, Md.). The neurons were grown in Neurobasal medium supplemented with 2 mM Glutamine, 100 U/ml penicillin/streptomycin- and 2% B27 in a humidified atmosphere of 10% CO2 at 37° C. for 14 days on a poly-D-lysine and laminin coated 10 cm^2 tissue culture dish.
During experimental manipulation of neural connectivity, the dynamic responses of dendritic microtubules to various stimuli are likely to differ from those of axonal shafts or of the cell body. In order to detect such differential responses by use of the invention disclosed herein, we cultured primary neurons from rat brain hippocampi and labeled newly synthesized tubulin by adding 5% ^2H2O in culture media for 24 hours. After separation of tubulin dimers and polymers in cytosolic extracts, we captured axonal growth cone and dendritic microtubules by sequential binding to immunoaffinity columns reactive with tau and MAP2, respectively, leaving only somatic and axonal shaft microtubules in the unbound fraction (FIG. 5A). Tubulin was purified further from each fraction, and label incorporation into Ala was measured by GC/MS (FIG. 5B). […] Free Ala in culture media was >80% equilibrated with ^2H2O (not shown). […]

N[C@@H](CCC(=O)[O-])C(=O)[O-].[K+].[K+] [glutamate, potassium L-glutamate]
microtubule label incorporation pattern compared with in vivo: identical results
